In the supplement of paper PMC11451515:

Assays:
Conditions in all cases: 48 h
[1] = system: NOMO1; test: AUC of viability dose-response curve (% viability x log10 dose units); higher = less sensitive
In short: (§1)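 Viability of medium-adapted leukemia cells was measured by CellTiter-Glo One luminescence after 48 h at 37°C with library compounds in DMSO. Doses were 11 threefold steps from 47 μM to 0.79 nM, in 1536-well plates at 500 or 1000 cells/well. Signals were normalised per plate to DMSO and cell-free wells and fitted with a four-parameter log-logistic model on log10 dose. Area under the curve was integrated by trapezoidal rule, with curves exceeding full viability scaled and failed quality-control curves removed.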

[2] = system: P12-Ichikawa; test: as above
In short: as §1

[3] = system: SEM cells; test: as above
In short: as §1

[4] = system: NOMO1; test: cell viability relative to DMSO control; higher = less cytotoxic
In short: (§2)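 Cells were incubated for 48 h at 37°C before CellTiter-Glo One luminescence was read. The cells were NOMO1 or SEM (500 cells/well) or P12-Ichikawa (1000 cells/well) leukemia cells, adapted for at least four passages in each medium and seeded in 1536-well plates (5 μl). Dosing used library compounds in DMSO applied by pin over 11 threefold points, 47 μM to 0.79 nM. Viability is the per-plate percentage of DMSO wells, with cell-free wells as background.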

[5] = system: P12-Ichikawa; test: as above
In short: as §2

[6] = system: SEM cells; test: as above
In short: as §2

O=C(Nc1cc(C(F)(F)F)cc(C(F)(F)F)c1)c1cc(Cl)ccc1O
AUC of viability dose-response curve
Conditions | [1] | [2] | [3]
HPLM + 10% dialyzed FBS | 361 | 368 | 373
RPMI 5 mM glucose + 10% FBS | 368 | 361 | 357
RPMI 5 mM glucose + 10% dialyzed FBS | 363 | 361 | 370

C=CC(=O)Nc1cc(NC(=O)c2ccc(C)c(NC(=O)c3ccno3)c2)cc(C(F)(F)F)c1
AUC of viability dose-response curve
Conditions | [1] | [2] | [3]
HPLM + 10% dialyzed FBS | 431 | 459 | 423
RPMI 5 mM glucose + 10% FBS | 457 | 454 | 451
RPMI 5 mM glucose + 10% dialyzed FBS | 467 | 452 | 438

O=C(O)CCNC(=O)c1ccc(/N=N/c2ccc(O)c(C(=O)O)c2)cc1
AUC of viability dose-response curve
Conditions | [1] | [2] | [3]
HPLM + 10% dialyzed FBS | 465 | 469 | 443
RPMI 5 mM glucose + 10% FBS | 469 | 447 | 454
RPMI 5 mM glucose + 10% dialyzed FBS | 468 | 443 | 464

cell viability [%]
Conditions | [4] | [5] | [6]
HPLM + 10% dialyzed FBS, 0.000781 µM | – | 115 | 116
HPLM + 10% dialyzed FBS, 0.00234 µM | – | 116 | 108
HPLM + 10% dialyzed FBS, 0.00702 µM | – | 114 | 118
HPLM + 10% dialyzed FBS, 0.0211 µM | – | 114 | 109
HPLM + 10% dialyzed FBS, 0.0632 µM | – | 110 | 106
HPLM + 10% dialyzed FBS, 0.19 µM | – | 120 | 105
HPLM + 10% dialyzed FBS, 0.569 µM | – | 109 | 98.9
HPLM + 10% dialyzed FBS, 1.71 µM | – | 115 | 105
HPLM + 10% dialyzed FBS, 5.12 µM | – | 112 | 103
HPLM + 10% dialyzed FBS, 15.4 µM | – | 110 | 101
HPLM + 10% dialyzed FBS, 46.1 µM | – | 113 | 96.7
RPMI 5 mM glucose + 10% FBS, 0.000781 µM | 106 | – | –
RPMI 5 mM glucose + 10% FBS, 0.00234 µM | 125 | – | –
RPMI 5 mM glucose + 10% FBS, 0.00702 µM | 113 | – | –
RPMI 5 mM glucose + 10% FBS, 0.0211 µM | 122 | – | –
RPMI 5 mM glucose + 10% FBS, 0.0632 µM | 110 | – | –
RPMI 5 mM glucose + 10% FBS, 0.19 µM | 110 | – | –
RPMI 5 mM glucose + 10% FBS, 0.569 µM | 117 | – | –
RPMI 5 mM glucose + 10% FBS, 1.71 µM | 106 | – | –
RPMI 5 mM glucose + 10% FBS, 5.12 µM | 117 | – | –
RPMI 5 mM glucose + 10% FBS, 15.4 µM | 116 | – | –
RPMI 5 mM glucose + 10% FBS, 46.1 µM | 76.7 | – | –

COc1nc(C)cnc1N[S+](=O)([O-])c1cccnc1-c1ccc(-c2nnco2)cc1
AUC of viability dose-response curve
Conditions | HPLM + 10% dialyzed FBS | RPMI 5 mM glucose + 10% FBS | RPMI 5 mM glucose + 10% dialyzed FBS
[1] | 465 | 455 | 474
[3] | 471 | 452 | 460

c1nc2c(NC3CCCCC3)nc(Nc3ccc(N4CCOCC4)cc3)nc2[nH]1
AUC of viability dose-response curve
Conditions | [1] | [2] | [3]
HPLM + 10% dialyzed FBS | 403 | 377 | 386
RPMI 5 mM glucose + 10% FBS | 399 | 364 | 364
RPMI 5 mM glucose + 10% dialyzed FBS | 405 | 384 | 363

cell viability [%], [6]
Conditions | HPLM + 10% dialyzed FBS | RPMI 5 mM glucose + 10% FBS
0.000781 µM | 121 | 110
0.00234 µM | 118 | 113
0.00702 µM | 114 | 132
0.0211 µM | 120 | 121
0.0632 µM | 131 | 120
0.19 µM | 116 | 131
0.569 µM | 120 | 111
1.71 µM | 112 | 95.9
5.12 µM | 36.8 | 20.5
15.4 µM | 28.4 | 13.7
46.1 µM | 29.3 | 14.4

Nc1ncnc2c1c(-c1cccc(OCc3ccccc3)c1)cn2[C@H]1C[C@@H](CN2CCC2)C1
AUC of viability dose-response curve
Conditions | [1] | [2] | [3]
HPLM + 10% dialyzed FBS | 433 | 458 | 437
RPMI 5 mM glucose + 10% FBS | 459 | 465 | 456
RPMI 5 mM glucose + 10% dialyzed FBS | 450 | 467 | 436

cell viability [%], [6]
Conditions | HPLM + 10% dialyzed FBS | RPMI 5 mM glucose + 10% FBS
0.000781 µM | 103 | 110
0.00234 µM | 125 | 115
0.00702 µM | 119 | 121
0.0211 µM | 123 | 107
0.0632 µM | 117 | 112
0.19 µM | 126 | 107
0.569 µM | 109 | 123
1.71 µM | 114 | 117
5.12 µM | 96.4 | 111
15.4 µM | 75.3 | 91.3
46.1 µM | 62.9 | 64.4

COC1=CC=C2[C@H]3CC[C@]4(C)[C@H](CC[C@H]4[C@@H]3CCC2=C1)NCCCCCCN5C(=O)\C=C/C5=O
AUC of viability dose-response curve
Conditions | [1] | [2] | [3]
HPLM + 10% dialyzed FBS | 434 | 456 | 472
RPMI 5 mM glucose + 10% FBS | 444 | 448 | 459
RPMI 5 mM glucose + 10% dialyzed FBS | 462 | 444 | 408

OC1=CC=C(C=C1)\C2=C(O)\C(=O)C3=C(O2)C=C(O)C=C3O
AUC of viability dose-response curve
Conditions | [1] | [2] | [3]
HPLM + 10% dialyzed FBS | 443 | 465 | 466
RPMI 5 mM glucose + 10% FBS | 458 | 437 | 469
RPMI 5 mM glucose + 10% dialyzed FBS | 466 | 449 | 470

[6], RPMI 5 mM glucose + 10% FBS
Conditions | cell viability [%]
0.000781 µM | 119
0.00234 µM | 100
0.00702 µM | 116
0.0211 µM | 127
0.0632 µM | 127
0.19 µM | 133
0.569 µM | 135
1.71 µM | 128
5.12 µM | 127
15.4 µM | 123
46.1 µM | 87.2

COc1cc[nH]c2ncc(C(=O)C(=O)N3CCN(C(=O)c4ccccc4)C[C@H]3C)c1-2
AUC of viability dose-response curve
Conditions | [1] | [2] | [3]
HPLM + 10% dialyzed FBS | 389 | 455 | 419
RPMI 5 mM glucose + 10% FBS | 461 | 463 | 453
RPMI 5 mM glucose + 10% dialyzed FBS | 452 | 470 | 428

cell viability [%]
Conditions | [4] | [5] | [6]
HPLM + 10% dialyzed FBS, 0.000781 µM | 137 | 114 | 89.9
HPLM + 10% dialyzed FBS, 0.00234 µM | 121 | 112 | 87.6
HPLM + 10% dialyzed FBS, 0.00702 µM | 111 | 118 | 77.4
HPLM + 10% dialyzed FBS, 0.0211 µM | 105 | 111 | 90.1
HPLM + 10% dialyzed FBS, 0.0632 µM | 121 | 112 | 58.5
HPLM + 10% dialyzed FBS, 0.19 µM | 108 | 109 | 82.6
HPLM + 10% dialyzed FBS, 0.569 µM | 106 | 108 | 92
HPLM + 10% dialyzed FBS, 1.71 µM | 108 | 101 | 96.8
HPLM + 10% dialyzed FBS, 5.12 µM | 120 | 106 | 88.8
HPLM + 10% dialyzed FBS, 15.4 µM | 100 | 103 | 94.2
HPLM + 10% dialyzed FBS, 46.1 µM | 99.1 | 102 | 109
RPMI 5 mM glucose + 10% FBS, 0.000781 µM | 99.9 | 114 | 115
RPMI 5 mM glucose + 10% FBS, 0.00234 µM | 101 | 118 | 109
RPMI 5 mM glucose + 10% FBS, 0.00702 µM | 101 | 119 | 112
RPMI 5 mM glucose + 10% FBS, 0.0211 µM | 101 | 117 | 116
RPMI 5 mM glucose + 10% FBS, 0.0632 µM | 99 | 117 | 74.2
RPMI 5 mM glucose + 10% FBS, 0.19 µM | 99.2 | 117 | 100
RPMI 5 mM glucose + 10% FBS, 0.569 µM | 100 | 122 | 100
RPMI 5 mM glucose + 10% FBS, 1.71 µM | 99.1 | 111 | 103
RPMI 5 mM glucose + 10% FBS, 5.12 µM | 107 | 107 | 113
RPMI 5 mM glucose + 10% FBS, 15.4 µM | 105 | 111 | 99.9
RPMI 5 mM glucose + 10% FBS, 46.1 µM | 102 | 97.5 | 96.9
RPMI 5 mM glucose + 10% dialyzed FBS, 0.000781 µM | 109 | 105 | 118
RPMI 5 mM glucose + 10% dialyzed FBS, 0.00234 µM | 117 | 109 | 109
RPMI 5 mM glucose + 10% dialyzed FBS, 0.00702 µM | 114 | 96.9 | 129
RPMI 5 mM glucose + 10% dialyzed FBS, 0.0211 µM | 115 | 110 | 115
RPMI 5 mM glucose + 10% dialyzed FBS, 0.0632 µM | 119 | 101 | 84.4
RPMI 5 mM glucose + 10% dialyzed FBS, 0.19 µM | 108 | 99.1 | 102
RPMI 5 mM glucose + 10% dialyzed FBS, 0.569 µM | 108 | 116 | 107
RPMI 5 mM glucose + 10% dialyzed FBS, 1.71 µM | 105 | 103 | 101
RPMI 5 mM glucose + 10% dialyzed FBS, 5.12 µM | 99.2 | 99.4 | 102
RPMI 5 mM glucose + 10% dialyzed FBS, 15.4 µM | 103 | 99.5 | 103
RPMI 5 mM glucose + 10% dialyzed FBS, 46.1 µM | 91.9 | 103 | 106
